What is called EC50 is the midpoint of the concentration-response curve.

This assay deals with T1, STING (Homo sapiens, UniProt Q86WV6, G230A/H232R/R293Q/R71H).
T1 construct: host or cells: THP1-Dual KO-IFNAR2 cells
The experiment in a line: STING reporter assay (luciferase) in THP1-Dual KO-IFNAR2 cells stimulated with 2′3′cGAMP. The class given is cell-based. The note with it: 2′3′cGAMP 15 μM final, 24 h, luciferase reporter activity, read-out: Pharmaron, THP1_IFNAR2 STING 24 h Luci Normalized: GeoMean EC50. An outline of the steps: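 THP1-Dual KO-IFNAR2 cells (2×10E6 cells/mL) exposed to compounds at 0.0017-100 μM final and stimulated with 2′3′cGAMP (15 μM final) delivered via Lipofectamine 2000. After 24 h at 37° C., secreted luciferase in supernatant read with QUANTI-Luc Plus; EC50 derived from luminescence.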

T1 sequence (Q86WV6 whole entry R71H/G230A/H232R/R293Q): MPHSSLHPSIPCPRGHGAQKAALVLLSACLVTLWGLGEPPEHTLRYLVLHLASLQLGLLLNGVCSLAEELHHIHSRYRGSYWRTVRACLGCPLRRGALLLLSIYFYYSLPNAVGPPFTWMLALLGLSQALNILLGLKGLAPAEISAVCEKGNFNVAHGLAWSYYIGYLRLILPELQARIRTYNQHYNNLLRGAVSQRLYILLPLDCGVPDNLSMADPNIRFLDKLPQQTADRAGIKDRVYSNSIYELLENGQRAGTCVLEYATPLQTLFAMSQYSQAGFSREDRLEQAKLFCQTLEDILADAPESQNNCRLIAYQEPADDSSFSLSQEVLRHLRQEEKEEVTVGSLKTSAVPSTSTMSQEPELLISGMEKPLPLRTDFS

Regarding `O=C(Nc1c[nH]c2ccc(O[C@H]3C[C@H](c4ccc(C(F)(F)F)cc4)C3)cc12)c1cccnc1` [Compound 227, N-{5-[(1R,3R)-3-[4-(trifluoromethyl)phenyl]cyclobutoxy]-1H-indol-3-yl}pyridine-3-carboxamide], the 50% effective concentration (EC50) was in the range of 0.2 to 1 µM.

For the compound `O=C(Nc1c[nH]c2ccc(O[C@H]3C[C@H](c4ccc(C(F)(F)F)cc4)C3)cc12)c1ccccn1` [Compound 228, N-{5-[(1R,3R)-3-[4-(trifluoromethyl)phenyl]cyclobutoxy]-1H-indol-3-yl}pyridine-2-carboxamide], the EC50 fell in the range of 0.2 to 1 µM.

Consider `O=C(Nc1c[nH]c2ccc(O[C@H]3C[C@H](c4ccc(C(F)(F)F)cc4)C3)cc12)C1CC2(CC2)C1` [Compound 229, N-{5-[(1R,3R)-3-[4-(trifluoromethyl)phenyl]cyclobutoxy]-1H-indol-3-yl}spiro[2.3]hexane-5-carboxamide], for which the half-maximal effective concentration (EC50) lay in the range of 0.04 to 0.2 µM.

Turning to `O=C(Nc1c[nH]c2ccc(O[C@H]3C[C@H](c4ccc(C(F)(F)F)cc4)C3)cc12)C1CC12CCC2` (stereo partly drawn) [Compound 230, N-{5-[(1R,3R)-3-[4-(trifluoromethyl)phenyl]cyclobutoxy]-1H-indol-3-yl}spiro[2.3]hexane-1-carboxamide], the 50% effective concentration (EC50) is 0.04 to 0.2 µM.

`O=C(Nc1c[nH]c2ccc(O[C@H]3C[C@H](c4ccc(C(F)(F)F)cc4)C3)cc12)c1ncccc1F` [Compound 231, 3-fluoro-N-{5-[(1R,3R)-3-[4-(trifluoromethyl)phenyl]cyclobutoxy]-1H-indol-3-yl}pyridine-2-carboxamide]: the EC50 lay within 0.04 to 0.2 µM.

For the compound `O=C(Nc1c[nH]c2ccc(O[C@H]3C[C@H](c4ccc(C(F)(F)F)cc4)C3)cc12)c1nccs1` [Compound 232, N-{5-[(1R,3R)-3-[4-(trifluoromethyl)phenyl]cyclobutoxy]-1H-indol-3-yl}-1,3-thiazole-2-carboxamide], the 50% effective concentration (EC50) lay within 0.04 to 0.2 µM.

Take `Cc1oncc1C(=O)Nc1c[nH]c2ccc(O[C@H]3C[C@H](c4ccc(C(F)(F)F)cc4)C3)cc12` [Compound 233, 5-methyl-N-{5-[(1R,3R)-3-[4-(trifluoromethyl)phenyl]cyclobutoxy]-1H-indol-3-yl}-1,2-oxazole-4-carboxamide]: the EC50 lay within 5 to 100 µM.

Regarding `Cc1noc(C)c1C(=O)Nc1c[nH]c2ccc(O[C@H]3C[C@H](c4ccc(C(F)(F)F)cc4)C3)cc12` [Compound 234, 3,5-dimethyl-N-{5-[(1R,3R)-3-[4-(trifluoromethyl)phenyl]cyclobutoxy]-1H-indol-3-yl}-1,2-oxazole-4-carboxamide], the EC50 was 0.2 to 1 µM.

For `O=C(Nc1c[nH]c2ccc(O[C@H]3C[C@H](c4ccc(C(F)(F)F)cc4)C3)cc12)c1cncs1` [Compound 235, N-{5-[(1R,3R)-3-[4-(trifluoromethyl)phenyl]cyclobutoxy]-1H-indol-3-yl}-1,3-thiazole-5-carboxamide], the half-maximal effective concentration (EC50) lay in the range of 0.2 to 1 µM.

As to `O=C(Nc1c[nH]c2ccc(OCc3ccc(C(F)(F)F)cc3)cc12)C1CC12CCC2` (centres unmarked) [Compound 236, N-(5-{[4-(trifluoromethyl)phenyl]methoxy}-1H-indol-3-yl)spiro[2.3]hexane-1-carboxamide], the EC50 lay within 0.04 to 0.2 µM.

On to `Cn1nccc1C(=O)Nc1c[nH]c2ccc(O[C@H]3C[C@H](c4ccc(C(F)(F)F)cc4)C3)cc12` [Compound 237, 1-methyl-N-{5-[(1R,3R)-3-[4-(trifluoromethyl)phenyl]cyclobutoxy]-1H-indol-3-yl}-1H-pyrazole-5-carboxamide], for which the concentration giving a half-maximal response (EC50) is 0.2 to 1 µM.

With `CC12CC(C(=O)Nc3c[nH]c4ccc(O[C@H]5C[C@H](c6ccc(C(F)(F)F)cc6)C5)cc34)(C1)C2` [Compound 238, 3-methyl-N-{5-[(1R,3R)-3-[4-(trifluoromethyl)phenyl]cyclobutoxy]-1H-indol-3-yl}bicyclo[1.1.1]pentane-1-carboxamide], the EC50 is 0.04 to 0.2 µM.

In the case of `O=C(Nc1c[nH]c2ccc(O[C@H]3C[C@H](c4ccc(C(F)(F)F)cc4)C3)cc12)c1cscn1` [Compound 239, N-(5-((1R,3R)-3-(4-(trifluoromethyl)phenyl)cyclobutoxy)-1H-indol-3-yl)thiazole-4-carboxamide], the EC50 lay in the range of 0.04 to 0.2 µM.

As to `Cn1cc(C(=O)Nc2c[nH]c3ccc(OCc4ccc(C(F)(F)F)cc4)cc23)nn1` [Compound 240, 1-methyl-N-(5-((4-(trifluoromethyl)benzyl)oxy)-1H-indol-3-yl)-1H-1,2,3-triazole-4-carboxamide], the EC50 lay within 1 to 5 µM.

As to `Cn1cc(C(=O)Nc2c[nH]c3ccc(O[C@H]4C[C@@H](c5ccc(C(F)(F)F)cc5)C4)cc23)nn1` [Compound 241], the EC50 lay in the range of 0.2 to 1 µM.

For `Cn1cc(C(=O)Nc2c[nH]c3ccc(OCC[C@@H]4C[C@@H]5CN(CC(F)(F)F)C[C@@H]5C4)cc23)nn1` [Compound 242, N-(5-{2-[(3aR,5R,6aS)-2-(2,2,2-trifluoroethyl)octahydrocyclopenta[c]pyrrol-5-yl]ethoxy}-1H-indol-3-yl)-1-methyl-1H-1,2,3-triazole-4-carboxamide], the EC50 was in the range of 0.2 to 1 µM.

For the compound `Cn1cc(C(=O)Nc2c[nH]c3ccc(CCOc4ccc(C(F)(F)F)cc4)cc23)nn1` [Compound 243, 1-methyl-N-(5-(2-(4-(trifluoromethyl)phenoxy)ethyl)-1H-indol-3-yl)-1H-1,2,3-triazole-4-carboxamide], the 50% effective concentration (EC50) lay in the range of 0.2 to 1 µM.

Take `Cn1cc(C(=O)Nc2c[nH]c3ccc(OCCc4ccc(C(F)(F)F)cc4)cc23)nn1` [Compound 244, 1-methyl-N-(5-(4-(trifluoromethyl)phenethoxy)-1H-indol-3-yl)-1H-1,2,3-triazole-4-carboxamide]: the 50% effective concentration (EC50) fell in the range of 0.04 to 0.2 µM.

On to `O=C(Nc1c[nH]c2ccc(OCCc3ccc(C(F)(F)F)cc3)cc12)c1cn(-c2cnc(N3CCC(F)(F)CC3)c(F)c2)nn1` [Compound 245, 1-(6-(4,4-difluoropiperidin-1-yl)-5-fluoropyridin-3-yl)-N-(5-(4-(trifluoromethyl)phenethoxy)-1H-indol-3-yl)-1H-1,2,3-triazole-4-carboxamide], for which the EC50 lay in the range of 0.2 to 1 µM.

With `O=C(Nc1c[nH]c2ccc(Oc3ccccc3)cc12)c1cnn(Cc2ccc(C(F)(F)F)cc2)c1` [Compound 246, N-(5-phenoxy-1H-indol-3-yl)-1-(4-(trifluoromethyl)benzyl)-1H-pyrazole-4-carboxamide], the half-maximal effective concentration (EC50) fell in the range of 0.04 to 0.2 µM.
